Compound | melting point [°C]
O=C1CCc2c(OCC3(O)CCN(c4cc(Cl)c(F)cc4Cl)CC3)ccc(F)c2N1 | 207.9
COc1cc(N2CCC(O)(COc3ccc(Cl)c4c3CCC(=O)N4)CC2)c(F)cc1Cl | 228.7 to 228.9
CCCCOc1cc(F)c(N2CC[C@@](O)(COc3ccc(F)c4c3CCC(=O)N4)[C@H](O)C2)c(F)c1 | 185.8 to 186.2
O=C1CCc2c(OCC3(O)CCN(c4ccc(OCCF)cc4F)CC3)ccc(F)c2N1 | 186.5 to 186.7
O=C1CCc2c(OCC3CCN(c4ncc(Cl)cc4Cl)CC3)ccc(Cl)c2N1 | 190 to 191
O=C1CCc2c(OC[C@]3(O)CCN(c4ccc(Cl)cc4F)C[C@H]3O)cc(F)c(F)c2N1 [Example 324] | 192.6 to 193.4
O=C1CCc2c(OCC3(O)CCN(c4c(F)cc(Br)cc4F)CC3)cc(F)c(F)c2N1 | 233.1 to 233.2
O=C1CCc2c(OCC3(O)CCN(c4cccc(Cl)c4)CC3)ccc(F)c2N1 | 169 to 170
O=C1CCc2c(OC[C@]3(O)CCN(c4ccc(F)cc4Cl)C[C@H]3O)cc(F)c(Cl)c2N1 | 175.7 to 177
O=C1CCc2c(OC[C@]3(O)CCN(c4c(F)cc(Br)cc4F)C[C@@H]3O)ccc(F)c2N1 (relative stereo) | 209 to 210
O=C1CCc2c(OCC3(O)CCN(c4cc(F)c(Cl)cc4Cl)CC3)ccc(F)c2N1 | 198.7 to 198.9
O=C1CCc2c(NCC3(O)CCN(c4ccc(Cl)cc4F)CC3)ccc(F)c2N1 | 225 to 226
CCOc1c(F)c(F)c(N2CCC(O)(COc3ccc(Cl)c4c3CCC(=O)N4)CC2)c(F)c1F | 174.4 to 174.5
O=C1CCc2c(OCC3(O)CCN(c4cc(OC(F)(F)F)c(Cl)cc4F)CC3)ccc(F)c2N1 | 208
O=C1CCc2c(OC[C@@]3(O)CCN(c4ccc(Cl)cc4F)C[C@@H]3O)ccc(F)c2N1 (relative stereo) | 191.9 to 193.5
CCOc1cc(N2CCC(O)(COc3ccc(Cl)c4c3CCC(=O)N4)CC2)c(F)cc1Cl | 228.1 to 229
O=C1CCc2c(OC[C@]3(O)CCN(c4c(F)cc(OC(F)F)cc4F)C[C@H]3O)ccc(F)c2N1 (relative stereo) [Example 314] | 167 to 169
CCOc1cc(F)c(N2CCC(O)(COc3ccc(Cl)c4c3CCC(=O)N4)CC2)c(F)c1 | 180.6 to 181
O=C1CCc2c(OC[C@]3(O)CCN(c4c(F)cc(Cl)cc4F)C[C@H]3O)cc(F)c(Cl)c2N1 [Example 278] | 192 to 194
O=C1CCc2c(OC[C@]3(O)CCN(c4nc5ccc(Cl)cc5o4)C[C@H]3O)ccc(F)c2N1 | 219 to 220
O=C1CCc2c(OCC3(O)CCN(c4cc(OC(F)(F)F)c(Cl)cc4Cl)CC3)ccc(F)c2N1 | 254.8 to 254.9
O=C1CCc2c(OCC3(O)CCN(c4c(F)cc(Br)cc4F)CC3)ccc(F)c2N1 | 217.7 to 217.9
CCCOc1cc(N2CCC(O)(COc3ccc(F)c4c3CCC(=O)N4)CC2)c(F)cc1Cl | 200.7 to 201.4
NOC1(COc2ccc(F)c3c2CCC(=O)N3)CCN(c2ncc(Cl)cc2Cl)CC1 | 147 to 149
O=C1CCc2c(OCC3(O)CCN(c4c(F)cc(Br)cc4F)CC3)ccc(Cl)c2N1 | 195.3 to 195.4
CCc1ccccc1N1CCC(O)(COc2ccc(F)c3c2CCC(=O)N3)CC1 | 178.6 to 179.3
CC(C)c1ccccc1N1CCC(O)(COc2ccc(F)c3c2CCC(=O)N3)CC1 | 163 to 163.3

Compound | melting point [°C]
CSc1ccc(N2CCC(O)(COc3ccc(Cl)c4c3CCC(=O)N4)CC2)c(Cl)c1 | 160.7 to 160.9
CC(C)c1cccc(N2CCC(O)(COc3ccc(F)c4c3CCC(=O)N4)CC2)c1 | 131.1 to 131.3
O=C1CCc2c(OCC3(O)CCN(c4ccc5ccccc5n4)CC3)ccc(F)c2N1 | 198 to 199
O=C1CCc2c(OC[C@]3(O)CCN(c4c(F)cc(F)cc4Cl)C[C@H]3O)ccc(F)c2N1 [Example 304] | 188 to 189
CSc1ccc(N2CCC(O)(COc3ccc(F)c4c3CCC(=O)N4)CC2)c(Cl)c1 | 207.4 to 207.6
O=C1CCc2c(OC[C@]3(O)CCN(c4c(F)cc(OC(F)F)cc4F)C[C@H]3O)ccc(F)c2N1 [Example 315] | 166
O=C1CCc2c(OCC3(O)CCN(c4cc(CCOc5ccc(F)cc5)c(Cl)cc4F)CC3)ccc(F)c2N1 | 156 to 156.1
O=C1CCc2c(OCC3(O)CCN(c4ccc(OC(F)F)cc4F)CC3)ccc(F)c2N1 | 201.6 to 202
COC(=O)NC1(COc2ccc(F)c3c2CCC(=O)N3)CCN(c2ncc(Cl)cc2Cl)CC1 | 183
O=C1CCc2c(OC[C@]3(O)CCN(c4ccc(OC(F)(F)F)cc4)C[C@H]3O)ccc(F)c2N1 | 196 to 197.1
Cc1ccc(N2CCC(O)(COc3ccc(F)c4c3CCC(=O)N4)CC2)nc1C | 197.9 to 199.6
Cn1c(N2CC[C@@](O)(COc3ccc(F)c4c3CCC(=O)N4)[C@H](O)C2)nc2ccccc21 | 138 to 147
O=C1CCc2c(OCC3(O)CCN(c4nccc5ccccc45)CC3)ccc(F)c2N1 | 198 to 199
O=C1CCc2c(OCC3(O)CCN(c4c(F)cc(F)cc4F)CC3)ccc(Cl)c2N1 | 175.6 to 176.1
CCCOc1ccc(N2CCC(O)(COc3ccc(F)c4c3CCC(=O)N4)CC2)c(F)c1 | 185.1 to 185.9
O=C1CCc2c(OC[C@]3(O)CCN(c4c(F)cc(Cl)cc4F)C[C@H]3O)ccc(Cl)c2N1 | 197 to 199
O=C1CCc2c(OCC3(O)CCN(c4c(Cl)cc(Cl)cc4Cl)CC3)ccc(F)c2N1 | 239.4 to 239.8
O=C1CCc2c(OCC3(O)[C@H](O)CN(c4c(F)cc(Cl)cc4F)C[C@H]3O)ccc(F)c2N1 (relative stereo) | 221.5 to 222
O=C1CCc2c(OCC3(O)CCN(c4ccsc4)CC3)ccc(F)c2N1 | 200.4 to 200.5
Cc1cc(N2CCC(O)(COc3ccc(F)c4c3CCC(=O)N4)CC2)c(F)cc1Cl | 208.6 to 208.8
O=C1CCc2c(OC[C@]3(O)CCN(c4cc(F)c(Cl)cc4Cl)C[C@H]3O)ccc(Cl)c2N1 | 180.2 to 180.6
Cc1cc(N2CCC(O)(COc3ccc(Cl)c4c3CCC(=O)N4)CC2)c(F)cc1F | 195 to 195.2
O=C1CCc2c(OCC3(O)CCN(c4ccc(Cl)cc4Br)CC3)ccc(F)c2N1 | 204.9
CCc1cc(N2CCC(O)(COc3ccc(F)c4c3CCC(=O)N4)CC2)c(F)cc1F | 186.7 to 186.8
O=C1CCc2c(OC[C@@]3(O)CCN(c4ccc(Br)cc4F)C[C@H]3O)ccc(F)c2N1 | 194.7 to 194.8
Cc1cc(Cl)cc(F)c1N1CCC(O)(COc2ccc(F)c3c2CCC(=O)N3)CC1 | 258.8 to 259
O=C1CCc2c(OCC3(O)CCN(c4ccc(Cl)cc4F)CC3)ccc(Cl)c2N1 | 222.9 to 223

Compound | melting point [°C]
CC(=O)NC1(COc2ccc(F)c3c2CCC(=O)N3)CCN(c2ncc(F)cc2C#N)CC1 | 237.8 to 238.2
O=C1CCc2c(OC[C@]3(O)CCN(c4c(F)cc(Cl)cc4F)C[C@H]3O)cc(F)c(F)c2N1 | 199 to 201
O=C1CCc2c(OCC3(O)CCN(c4ccc5c(c4)OC(F)(F)O5)CC3)ccc(F)c2N1 | 198.4 to 198.5
COC1(COc2ccc(F)c3c2CCC(=O)N3)CCN(c2ncc(Cl)cc2Cl)CC1 | 181 to 182
O=C1CCc2c(OCC3(O)CCN(c4c(F)cc(Cl)cc4F)CC3)ccc(F)c2N1 | 225.5 to 225.6
CCc1cc(N2CCC(O)(COc3ccc(Cl)c4c3CCC(=O)N4)CC2)c(F)cc1F | 178.8 to 178.9
O=C1CCc2c(OCC3(O)CCN(c4ccc(OC(F)(F)F)cc4F)CC3)ccc(F)c2N1 | 174.2 to 174.3
C[C@H]1CN(c2ncc(Cl)cc2Cl)CC[C@@]1(O)COc1ccc(F)c2c1CCC(=O)N2 (relative stereo) | 222 to 223
O=C1CCc2c(OC[C@]3(O)CCN(c4c(F)cc(F)cc4F)C[C@H]3O)ccc(F)c2N1 [Example 306] | 191 to 192
COCCOc1ccc(N2CCC(O)(COc3ccc(F)c4c3CCC(=O)N4)CC2)c(F)c1 | 174
O=C1CCc2c(OCC3(O)CCN(c4ccccc4OC(F)(F)F)CC3)ccc(F)c2N1 | 168
O=C1CCc2c(OCC3(O)CCN(c4ccc(Cl)cc4[N+](=O)[O-])CC3)ccc(F)c2N1 | 188 to 189
COCCOc1cc(N2CCC(O)(COc3ccc(F)c4c3CCC(=O)N4)CC2)c(F)cc1Cl | 170.6 to 170.8
O=C1CCc2c(OCC3(O)CCN(c4ncc(C(F)(F)F)cc4Cl)CC3)ccc(F)c2N1 | 172.5 to 172.7
CCOc1cccc(N2CCC(O)(COc3ccc(F)c4c3CCC(=O)N4)CC2)c1 | 128.1
O=C1CCc2c(OCC3(O)CCN(c4ccc(Cl)c(Cl)c4)CC3)ccc(F)c2N1 | 230.9 to 231.2
O=c1ccc2c(OCC3(O)CCN(c4ccc(Cl)cc4F)CC3)ccc(F)c2[nH]1 | 255 to 256
CCOc1cc(N2CCC(O)(COc3ccc(Cl)c4c3CCC(=O)N4)CC2)c(F)cc1F | 182.1 to 182.4
O=C1CCc2c(OCC3(O)CCN(c4ccc(OC(F)(F)F)cc4F)CC3)ccc(Cl)c2N1 | 149.7 to 149.9
O=C1CCc2c(OC[C@]3(O)CCN(c4c(F)cc(F)cc4Cl)C[C@H]3O)ccc(F)c2N1 (relative stereo) [Example 303] | 215 to 218
O=C1CCc2c(OC[C@]3(O)CCN(c4c(F)cc(Cl)cc4F)C[C@H]3O)cc(F)c(Cl)c2N1 (relative stereo) [Example 277] | 201 to 204
O=c1ccc2c(OC[C@]3(O)CCN(c4c(F)cc(Cl)cc4F)C[C@H]3O)ccc(F)c2[nH]1 [Example 367] | 247.4 to 247.5
O=C1CCc2c(OC[C@]3(O)CCN(c4ccc(Cl)cc4Cl)C[C@H]3O)ccc(Cl)c2N1 | 184.1 to 185.1
CCOc1cc(F)c(N2CCC(O)(COc3ccc(F)c4c3CCC(=O)N4)CC2)c(F)c1 | 207.9 to 208.8
O=C1CCc2c(OCC3(O)CCN(c4c(F)cc(OC(F)F)cc4F)CC3)ccc(Cl)c2N1 | 143.6 to 143.7
O=C1CCc2c(OCC3(O)CCN(c4ccc(Oc5ccccc5)cc4)CC3)ccc(F)c2N1 | 186.9 to 187.2

— US10464926B2, “Heterobicyclic compounds and their use for the treatment of tuberculosis” (OTSUKA PHARMACEUTICAL CO., LTD., priority 2014, dated 2019)
